From PubChem BioAssay (NCI)
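Dose response: 5 concentrations. Exposure: 48 h. Format: 96-well plates. Endpoint: linear interpolation; highest concentration if not reached. GI50 = concentration required for 50% inhibition of growth. TGI denotes the concentration required for complete inhibition of growth.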

Columns and labels:
Assay in all cases: DTP human tumour cell line panel, 48 h
SN12C renal = system: SN12C renal
OVCAR-3 ovarian = system: OVCAR-3 ovarian
RXF 393 renal = system: RXF 393 renal
K-562 leukemia = system: K-562 leukemia
NCI-H522 lung = system: NCI-H522 lung
UACC-62 melanoma = system: UACC-62 melanoma
U251 CNS = system: U251 CNS
HCT-116 colon = system: HCT-116 colon
SK-OV-3 ovarian = system: SK-OV-3 ovarian
MCF7 breast = system: MCF7 breast

SMILES | TGI (SN12C renal) [µM] | TGI (OVCAR-3 ovarian) [µM] | TGI (RXF 393 renal) [µM] | TGI (K-562 leukemia) [µM] | TGI (NCI-H522 lung) [µM] | TGI (UACC-62 melanoma) [µM] | TGI (U251 CNS) [µM] | TGI (HCT-116 colon) [µM] | TGI (SK-OV-3 ovarian) [µM] | GI50 (SN12C renal) [µM] | GI50 (K-562 leukemia) [µM] | GI50 (NCI-H522 lung) [µM] | GI50 (UACC-62 melanoma) [µM] | GI50 (U251 CNS) [µM] | GI50 (HCT-116 colon) [µM] | GI50 (SK-OV-3 ovarian) [µM] | GI50 (OVCAR-3 ovarian) [µM] | GI50 (RXF 393 renal) [µM] | GI50 (MCF7 breast) [µM] | TGI (MCF7 breast) [µM]
COC(=O)C1C(OCc2ccccc2)C2CCC1(OC)C=C2C (stereo unspecified) | > 100 | > 100 | > 100 | > 100 | > 100 | > 100 | > 100 | > 100 | > 100 |  |  |  |  |  |  |  |  |  |  | 
O=C(c1ccc(Cl)cc1)c1ccc(OCCSCCCCCCCCCCSCCOc2ccc(C(=O)c3ccc(Cl)cc3)cc2)cc1 | > 100 | > 100 | > 100 | > 100 | > 100 | > 100 | > 100 |  | > 100 |  |  |  |  |  |  |  |  |  |  | 
C1=Nc2ccccc2C=Nc2ccccc2C=Nc2ccccc2C=Nc2ccccc21.[Cl-].[Pt+2] | > 100 |  |  | 93.7 | 34.8 | 87.8 | 27.5 | > 100 | 65.9 | 28.4 | 3.61 | 15.8 | 21.1 | 10.5 | 25.9 | 24.4 |  |  |  | 
O=C(COc1cccc(/C=C2\CSc3ccccc3C2=O)c1)c1ccc(Cl)cc1 | 8.47 | 3.51 | 6.73 |  | 3.67 | 3.24 | 2.72 | 1.95 | 41.9 | 2.54 |  | 1.61 | 1.65 | 1.42 | 0.689 | 8.97 | 1.8 | 2.67 | 0.458 | 1.81
COc1cc(Nc2nc3ccc(C(F)(F)F)cc3nc2-c2ccccc2)cc(OC)c1OC | > 100 | > 100 | > 100 | > 100 | 93.6 | > 100 | > 100 |  | > 100 |  |  |  |  |  |  |  |  |  |  | 
COc1ccc2c(c1)/C(=N/OC(C)=O)c1c-2c(=O)[nH]c2ccccc12 | 31 | 36.3 |  | 28.7 | 31.4 | 30.4 | 30.1 | 12.4 |  | 16.2 | 11.3 | 13.5 | 16.6 | 15.5 | 3.35 |  | 16.5 |  | 66.3 | > 100
COc1cc2c(cn1)[nH]c1ccccc12 | > 100 | > 100 |  | > 100 | > 100 | > 100 | > 100 | > 100 | > 100 |  |  |  |  |  |  |  |  |  |  | 
NNC(=O)/C(NC(=O)c1ccccc1)=C(\N)c1ccc(Cl)cc1 | > 100 | > 100 | > 100 | > 100 | > 100 | > 100 | > 100 | > 100 | > 100 |  |  |  |  |  |  |  |  |  |  | 
CC(C)CN(CC(C)C)C(=O)C1CCCC[C@@H]1C(=O)O (stereo partly specified) | > 100 | > 100 |  | > 100 | > 100 | > 100 | > 100 | > 100 | > 100 |  |  |  |  |  |  |  |  |  |  | 
NC(CC1=CCC=CC1)C(=O)O (stereo unspecified) | > 100 | > 100 | > 100 | > 100 |  | > 100 | > 100 | > 100 | > 100 |  |  |  |  |  |  |  |  |  |  | > 100
C=CCn1cc(C(=O)NC(=O)NCCCCCOC(=O)CCCCCCCCCCC(=O)OCCCCCNC(=O)NC(=O)c2cn(CC=C)c(=O)n(C)c2=O)c(=O)n(C)c1=O | > 100 | > 100 | > 100 | > 100 | > 100 | > 100 | > 100 | > 100 | > 100 |  |  |  |  |  |  |  |  |  |  | 
Cc1cccc(C)c1NC(=O)CCc1n[nH]c(=S)o1 | > 100 | > 100 |  | > 100 | > 100 | > 100 | > 100 | 36.7 | > 100 |  |  |  |  |  |  |  |  |  |  | 
S=c1nc(N2CCCCC2)ss1 | 40.9 |  | 33.4 | 52.1 |  | 35.4 | 38 | 42.4 | > 100 |  |  |  |  |  |  |  |  |  |  | 
CC(=O)/C=C/c1ccc(C)cc1 | > 100 | > 100 | > 100 | > 100 | > 100 | > 100 | > 100 | > 100 | > 100 |  |  |  |  |  |  |  |  |  |  | 
C=C1C(=O)O[C@H]2[C@H]1CC/C(Cn1cc(-c3cc(C)c(C)cc3C)nn1)=C\CC[C@@]1(C)O[C@@H]21 | 3.41 | 2.19 | 2.21 | 6.24 | 1.17 | 2.56 | 2.91 | 1.06 | 23.9 | 1.49 | 1.39 | 0.282 | 1.13 | 1.53 | 0.336 | 11.7 | 1.03 | 0.962 |  | 
Cc1[nH]nc2c1N=C(c1ccccc1Cl)c1cc([N+](=O)[O-])ccc1N2 | > 25 | 0.836 | 1.92 | > 25 | > 25 |  | > 25 | > 25 | > 25 | 3.29 | 0.175 | 0.139 |  | 0.511 | 0.337 | 1.62 | 0.145 | 0.245 | 0.142 | > 25
COc1ccc(-c2c(N)[n+]([O-])c3ccccc3[n+]2[O-])cc1OC | > 100 | > 100 |  | > 100 | > 100 |  | > 100 | > 100 | > 100 |  |  |  |  |  |  |  |  |  |  | 
Cc1c2c(cc3c(=O)ccn(CCN(C)C)c13)c(=O)ccn2CCN(C)C | 33.3 | 34.9 | 28.9 | 44.9 | 21.1 | 31.6 | 23 | 19.5 | 37.5 |  |  |  |  |  |  |  |  |  |  | 
CC1C(=O)O[C@H]2C1CC[C@@]1(C)[C@H](O)CC[C@@]13C[C@]2(O)OO3 (stereo partly specified) | > 100 | > 100 |  | > 100 |  | > 100 | > 100 | > 100 | > 100 |  |  |  |  |  |  |  |  |  |  | 
CCOP(=O)(OCC)C1=NC=CC=CC1n1c(-c2ccccc2)nn(CC)c1=O (stereo unspecified) | > 100 | > 100 | > 100 |  | > 100 | > 100 | > 100 | > 100 | > 100 |  |  |  |  |  |  |  |  |  |  | 
N#CC1CC2(C(=O)C1=O)c1ccccc1-c1ccccc12 (stereo unspecified) | > 100 | > 100 | > 100 | > 100 | > 100 | > 100 | > 100 | > 100 | > 100 |  |  |  |  |  |  |  |  |  |  | 
